The results in this text go back to patent US11365215B2, “Method for preventing, improving, or treating inflammatory bowel disease” (Research & Business Foundation Sungkyunkwan University, priority 2015, dated 2022).

“Also recorded” adds a separate entry of the source. Where two headings read alike, the source gives them in different places. Peptide text beside a SMILES is read from it.

The subject of series [1] is VEGF. In words: qRT-PCR of VEGF in high-glucose HRMEC cells. As to conditions: 30 mM glucose 48 hours, 10 nM and 50 nM. Type of series: cell-based. As for the experimental part: In addition, HRMEC cells were treated with 5.5 mM of glucose for reference group. For experiment group, the HRMEC cells were treated with 30 mM of glucose for 48 hours to induce high blood glucose condition, and simultaneously treated with DMSO, compound 1.1 (SEQ ID NO: 2) (10 nM), and compound 1.1 (SEQ ID NO: 2) (50 nM). Changes in expression of Nox-4, VEGF, VEGFR1, VEGFR2, Ang1, Ang2, Tie-2, EPO, and EPOR proteins were quantitatively measured by qRT-PCR (quantitative RT-PCR). Expression of VEGF precursor as stimulating factor of new blood vessel was reduced by treatment with compound 1.1 (SEQ ID NO: 2) (FIG. 25C).

Series [2] addresses T1, inflammatory signaling pathway complex mediated by MyD88 and RIP1 (Mus musculus, UniProt P22366+Q60855).
T1 construct: endogenous in cells; host or cells: bone-marrow-derived macrophage (BMDM) cells
In words: Immunoprecipitation/immunoblot of inflammatory signaling pathway complex in LPS-treated BMDM cells. Type of series: cell-based. Conditions: 100 pM, 1 nM, 100 nM, then 100 ng/mL LPS. As for the experimental part:
Bone-marrow-derived macrophage (BMDM) cells were individually pretreated with compound 1.1 (SEQ ID NO: 2), reference compound 1 (SEQ ID NO: 16), and smaducin-6 at various concentrations of 100 pM, 1 nM, and 100 nM, and then further treated with 100 ng/mL of LPS.

The subject of series [3] is chemokines (CCL20, CCL2 and CX3CL1). In words: Chemokine expression in large intestine tissues of DSS chronic colitis mice (Real-Time PCR). Type of series: in vivo. Conditions: oral 100 mg/kg daily for 10 days, sulfasalazine 500 mg/kg as comparison. As for the experimental part: Meanwhile, as shown in FIGS. 11B-11D, mice suffering from chronic colitis induced by DSS were orally administered sulfasalazine in an amount of 500 mg/kg and compound 1.1 (SEQ ID NO: 2) in an amount of 100 mg/kg daily for 10 days. After 10 days of administration, large intestine tissues were obtained from the mice, and expression of chemokines (CCL20, CCL2 and CX3CL1) in the tissues was measured using real-time polymerase chain reaction (Real-Time PCR) as described above.
(In general: In qPCR the cycle at which signal appears reflects the starting amount.)

The nature of series [4]: Tissue distribution after oral administration. As to conditions: rat, oral 10 mg/kg. Type of series: in vivo. As for the experimental part: Compound 1.1 (SEQ ID NO: 2) was orally administered to a rat at dose of 10 mg/kg, and after 2 hours and 8 hours, concentrations of compound 1.1 (SEQ ID NO: 2) were measured in the small intestinal tissue, large intestinal tissue, appendix tissue, retrimentum in small intestine and retrimentum in large intestine.

In series [5] the test system is experimental autoimmune encephalomyelitis. In words: MOG-induced experimental autoimmune encephalomyelitis model. Type of series: in vivo. As to conditions: EAE mice. As for the experimental part:
To confirm the effect of compound 1.1 (SEQ ID NO: 2) on multiple sclerosis, mice (10 weeks old, female) were sensitized with MOG35-55/[…] and PTX and an experimental autoimmune encephalomyelitis mouse model was obtained. Experimental methods were described in Oncotarget, Vol. 7 (2016), No. 13, 15382-15393, which is incorporated herein by reference.
As reference group, 10000 unit of Interferon-beta was hypodermically injected for 25 days, once every other day. Clinical score were measured and presented.

The subject of series [6] is NF-κB. In words: 5×NF-κB-Luc reporter luciferase assay in LPS-treated RAW 264.7 cells. Type of series: cell-based. As to conditions: 100 nM for 30 minutes, LPS 100 ng/ml two hours. As for the experimental part:
Specifically, 5×NF-κB-Luc reporter plasmid was transfected into RAW 264.7 cells using Effectene (Qiagen, USA). The transfected cells were pretreated with 100 nM of compound 1.1 (SEQ ID NO: 2) for 30 minutes, and further treated with LPS (100 ng/ml) for two hours, and luciferase activity in the cells was measured (FIG. 4 depicts a graph showing relative inhibition activities of compound 1.1 (SEQ ID NO: 2) and compound 1.2 to NF-κB activation). When the cells were treated with compound 1.1 (SEQ ID NO: 2) and compound 1.2 according to the present invention, activation of NF-κB, which was induced by LPS, was inhibited (FIG. 4).
In addition, 5×NF-κB-Luc reporter plasmid was transfected into RAW 264.7 macrophage cells and treated with compounds of the present invention, as described above. After 24 hours of the transfection, the cells were pretreated with DMSO (control), compound 1.1 (SEQ ID NO: 2), reference compound 1 (SEQ ID NO: 16) (compound where palmitic acid is removed from compound 1.1 (SEQ ID NO: 2)), and smaducin-6 were treated at various concentrations of 100 pM, 1 nM, and 100 nM for 30 minutes, and then the cells were treated with 100 ng/ml of LPS for two hours.
Specifically, 5×NF-κB-Luc reporter plasmid, SBE-Luc reporter plasmid, and BRE-Luc reporter plasmid were individually transfected into Raw 264.7 macrophage cells. After 24 hours, the cells transfected with the NF-κB-Luc reporter plasmid were treated with 100 ng/mL of LPS, the cells transfected with the SBE-Luc reporter plasmid were treated with 5 ng/mL of TFG-β1, and the cells transfected with the BRE-Luc reporter plasmid were treated with 100 ng/mL of BMP6 for two hours.
As described in Example 2.3, 5×NF-κB-Luc reporter plasmid was transfected into RAW 246.7 macrophage cells. After 24 hours, the cells transfected with NF-κB-Luc reporter plasmid were pretreated with compound 1.1 (SEQ ID NO: 2) (100 nM), interleukin-1-receptor-associated-kinase-1/4 inhibitor (IRAK1/4) inhibitor (25 μM, CAS 509093-47-4), and smaducin-6 (100 nM) for 30 minutes, and then further treated with LPS (100 ng/ml) for 2 hours. Subsequently, luciferase activities in the cells were measured.

Series [7] concerns HRMEC cells. In words: VEGF-induced tube formation in HRMEC cells. Type of series: cell-based. As to conditions: HRMEC on Matrigel; 20 ng/ml VEGF 4 hours; 50 nM. As for the experimental part:
To evaluate the effect of compound 1.1 (SEQ ID NO: 2) on tube formation during angiogenesis, HRMEC cells ([…]) were cultured on Matrigel coated micro slides and treated with 20 ng/ml of VEGF for 4 hours to induce the tube formation. Simultaneously, for reference group, the cells were treated with DMSO, and for experimental group, the cells were treated with 50 nM of compound 1.1 (SEQ ID NO: 2) and 1 uM of calcein-AM. The cells were observed using fluorescence microscope.

T1 sequence (P22366 whole entry): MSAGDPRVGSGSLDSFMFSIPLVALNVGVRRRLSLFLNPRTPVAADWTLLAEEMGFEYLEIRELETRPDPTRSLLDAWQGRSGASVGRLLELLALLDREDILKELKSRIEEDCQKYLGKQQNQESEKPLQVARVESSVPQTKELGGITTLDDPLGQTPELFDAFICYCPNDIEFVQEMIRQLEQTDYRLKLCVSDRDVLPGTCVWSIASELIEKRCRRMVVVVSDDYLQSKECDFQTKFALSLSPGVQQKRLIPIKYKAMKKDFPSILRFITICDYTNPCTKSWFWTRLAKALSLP
T1 sequence (Q60855 whole entry): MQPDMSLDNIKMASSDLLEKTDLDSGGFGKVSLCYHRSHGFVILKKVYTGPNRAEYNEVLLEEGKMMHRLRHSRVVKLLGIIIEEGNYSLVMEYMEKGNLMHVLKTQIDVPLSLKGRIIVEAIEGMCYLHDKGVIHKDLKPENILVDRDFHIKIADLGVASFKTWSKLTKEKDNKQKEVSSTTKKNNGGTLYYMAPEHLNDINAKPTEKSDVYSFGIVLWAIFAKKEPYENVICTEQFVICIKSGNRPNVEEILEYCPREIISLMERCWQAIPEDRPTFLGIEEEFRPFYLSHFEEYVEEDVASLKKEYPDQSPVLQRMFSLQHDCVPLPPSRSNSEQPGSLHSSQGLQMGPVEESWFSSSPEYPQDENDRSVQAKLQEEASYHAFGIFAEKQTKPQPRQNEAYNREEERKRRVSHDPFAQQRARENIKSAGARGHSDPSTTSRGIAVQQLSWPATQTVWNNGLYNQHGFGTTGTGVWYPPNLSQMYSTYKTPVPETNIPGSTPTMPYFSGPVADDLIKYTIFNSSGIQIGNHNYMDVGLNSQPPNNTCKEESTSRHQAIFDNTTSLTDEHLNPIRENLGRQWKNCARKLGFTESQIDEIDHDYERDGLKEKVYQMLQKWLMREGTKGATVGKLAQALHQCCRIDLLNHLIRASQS

In the case of `CCCCCCCCCCCCCCCC(=O)N1CCC[C@H]1C(=O)N1CCC[C@H]1C(=O)NCC(=O)N[C@@H](Cc1ccc(O)cc1)C(=O)O` [compound 1.1, (S)-3-(4-hydroxyphenyl)-2-(2-((S)-1-((S)-1-palmitoylpyrrolidine-2-carbonyl)pyrrolidine-2-carboxamido)acetamido)propanoic acid] (HELM PEPTIDE1{[CCCCCCCCCCCCCCCC(=O)[*:2]].P.P.G.Y}$$$$V2.0), the “expression of VEGF precursor” value in series [1] was “reduced”. Further, in series [2], the “formation of inflammatory signaling pathway complex mediated by MyD88 and RIP1” value is given as “further disrupted in an increasing dose dependent manner”. Besides, the “expression of chemokines (CCL20, CCL2 and CX3CL1) in large intestine tissues” value in series [3] is “effective chemokine blockers”. The concentration at 2 h in series [4] (appendix tissue, 2 hours, read-out: Concentration in appendix tissue) was 22.7 ± 2.56 ng/mL; in series [4] (large intestinal tissue, 2 hours, read-out: Concentration in large intestinal tissue), 30 ± 10 ng/mL; in series [4] (retrimentum in small intestine, 2 hours, read-out: Concentration in retrimentum in small intestine), 1120 ± 217 ng/mL. Besides, the concentration at 8 h in series [4] (appendix tissue, read-out: Concentration in appendix tissue) amounted to 48.2 ± 46 ng/mL; in series [4] (large intestinal tissue, read-out: Concentration in large intestinal tissue) it was 33.2 ± 28.8 ng/mL; in series [4] (retrimentum in large intestine, read-out: Concentration in retrimentum in large intestine) it was 1280 ± 52.7 ng/mL; in series [4] (retrimentum in small intestine, read-out: Concentration in retrimentum in small intestine), 876 ± 900 ng/mL; in series [4] (small intestinal tissue, read-out: Concentration in small intestinal tissue) it was 78.1 ± 59.9 ng/mL. Also, in series [4] (2 hours), the “Concentration in small intestinal tissue” value came to 75 ± 70.2 ng/mL. Moreover, in series [5] (compared to the EAE disease model group), the “changes in body weights” value is listed as “did not have reduced weight”. Further, the “clinical score / treatment effect” value in series [5] (hypodermic 1 mg/kg and 40 mg/kg every other day for 25 days, vs interferon-beta 10000 unit) was “effective in the treatment for multiple sclerosis; also recorded: the same or greater treatment effect and safety”. For the same compound, the “inhibition of the activity of NF-κB induced by LPS, dose dependence” value in series [6] (100 pM, 1 nM) is reported as “increased as dose of compound 1.1 (SEQ ID NO: 2) increased”. For the same compound, the “activation of NF-κB induced by LPS (luciferase activity)” value in series [6] is recorded as “inhibited”. The tube formation result in series [7] was “suppressed tube formation”.
